Experimental data taken from patent US8691762B2, “Methods and assays for treating subjects with SHANK3 deletion, mutation or reduced expression” (Mount Sinai School of Medicine, priority 2010, dated 2014).
“Also recorded” adds a separate entry of the source.

How the values were obtained:
[1] = test system: Shank3 heterozygous mice; assay: Long-term potentiation at Schaffer collateral-CA1 synapses, hippocampal slices from treated Shank3 heterozygous mice; assay type: in vivo, mouse; settings: for LTP (normalized field EPSP slope), higher dose: rhIGF-1 i.p. 240 μg/kg/day for 2 weeks from P13-15
Experimental: FIG. 8. […] Ampakine CX1837 or HPCD vehicle is administered daily via i.p. injections (1.5 mg/kg body weight) starting at 2 weeks old and continued for 4 weeks for electrophysiological recordings.
(§1) FIG. 10A-10B. Recombinant human IGF-1 (rhIGF-1) reverses deficits in long-term potentiation and basal synaptic properties at Schaffer collateral-CA1 synapses in Shank3 heterozygous mice in a dose-dependent fashion. rhIGF-1 is administered daily via i.p. injections (120 or 240 μg/kg body weight) starting at P13-15 and continued for 2 weeks for electrophysiological recordings. A. LTP was induced with high-frequency stimulation and normalized field EPSP slope was plotted as a function of time. […] B. AMPA receptor responses were assessed in the mice. Slices were incubated in the presence of APV and mean field EPSP slope as a function of fiber volley is shown for slices derived from wildtype (WT), Shank3 heterozygous (Het) mice, and Het injected with rhIGF-1. Deficits in AMPA receptor signaling observed in Shank3 heterozygotes were reversed with 2-week rhIGF-1 treatment.

[2] = test system: Shank3 heterozygous mice; assay: Motor performance and learning, latency to fall off a rotating rod; assay type: in vivo, mouse; settings: IGF-1 240 μg/kg/day for 2 weeks; male Shank3 Het vs vehicle
Experimental: FIG. 11. IGF-1 treatment reverses motor deficits in Shank3 heterozygous mice.
Phelan-McDermid syndrome frequently presents with hypotonia and at least transient motor deficits, and subtle motor deficits have been observed in Shank3-heterozygous mice (Bozdagi et al., 2010). To determine whether treatment with full-length IGF-1 may improve motor performance in Shank3-deficient mice, male heterozygous mice were treated with either vehicle or IGF-1 (240 μg/kg/day for 2 weeks).

[3] = test system: Akt; assay: Western blot for total- and phospho-Akt in hippocampus; assay type: in vivo, mouse
Text: FIG. 6. IGF1 treatment activates PI3K-Akt pathway in the hippocampus. PI3K binds to AMPARs and is required to maintain AMPAR surface expression during long-term potentiation.
It is interesting to note that IGF-1 activates the mTOR/Akt pathway as this has been implicated in other neurodevelopmental disorders (Veenstra-Vanderweele et al., 2012).

[4] = test system: AMPA receptor; assay: AMPA receptor component of I/O function (field EPSP slope vs fiber volley in presence of APV); assay type: in vivo, mouse; settings: Shank3 Het
Experimental: as §1
IGF-1 has been approved for clinical use as a recombinant full-length protein. Full-length IGF-1 enters the CNS through an interaction with lipoprotein-related receptor 1 (LRP1), after activity dependent cleavage of IGF binding protein-3 (IGFBP-3) by matrix metalloproteinase-9 (MMP9) (Nishijima et al., 2010). […]

[5] = test system: Shank3 KO mice; settings: (1-3)IGF-1 peptide, same protocol as heterozygotes, N=2
Experimental: Brief experimental procedures: Hippocampal slices (350 μm) are prepared from 1-3 month old Shank3 heterozygous, Shank3 knockout, and wildtype littermates, treated with (1-3) IGF-1 peptide, full-length IGF1, growth hormone, AMPAkine or saline or other appropriate control. Slices are perfused with Ringer's solution, bubbled with 95% O2/5% CO2, at 32° C., during extracellular recordings. Baseline of field excitatory postsynaptic potentials (fEPSPs) recorded from stratum radiatum in area CA1, evoked by stimulation of the Schaffer collateral-commissural afferents with bipolar tungsten electrodes placed into area CA3. Long-term potentiation (LTP) is induced either by a high-frequency stimulus (four trains of 100 Hz, 1 s stimulation separated by 5 min), or by theta-burst stimulation (TBS) (10 bursts of four pulses at 100 Hz separated by 200 ms), with a success rate >90% for control and genetically-modified animals with all stimulation protocols. To induce long-term depression (LTD), Schaffer collaterals were stimulated by a low frequency stimulus (900 pulses at 1 Hz for 15 min) or paired-pulse low frequency stimulus. LTD was induced with a success rate >90% for control animals. […]

Substance | LTP (normalized field EPSP slope), lower dose ([1]; rhIGF-1 i.p. 120 μg/kg/day for 2 weeks, Shank3 Het) | LTP (normalized field EPSP slope), higher dose ([1]; Shank3 Het) | LTP (normalized field EPSP slope), higher dose ([1]; Shank3 Het, listed as rhIGF-1) | Latency to fall off rotating rod / motor performance [2] | phospho-Akt/Akt ratio ([3]; hippocampal lysates, Shank3 Het injected 2 weeks, n=10, vehicle 0.36±0.03 (n=8), 1-tailed p=0.040) | phosphorylation of Akt (pAkt1) ([3]; hippocampus, heterozygote mice, vs vehicle injected, n=3, P=0.0366) | Mean slope of the I/O function (AMPA receptor component) ([4]; IGF-1 240 μg/kg/day i.p. 2 weeks, wildtype 0.625±0.08, untreated Het 0.31±0.045, p=0.004) | Deficits in AMPA receptor signaling (AMPA component of I/O function) ([4]; rhIGF-1 i.p. 240 μg/kg/day for 2 weeks, slices in APV) | LTP (normalized field EPSP slope) ([1]; (1-3)IGF-1 i.p. 0.01 mg/g (10 μg/g/day) daily for 2 weeks from P13-15, Shank3 Het vs vehicle) | LTP (fEPSP versus time) [5]
IGF-1: recombinant human IGF-1, a 7.6 kDa protein, SEQ ID NO:3 | not associated with significant reversal | effective in rescuing defective LTP | reversed by the higher | significantly longer latencies; also recorded: Significant enhancement of motor performance | 0.55±0.04 | increase | 0.618±0.075 | reversed |  | 
glycine-proline-glutamic acid [(1-3)IGF-1] |  |  |  |  |  |  |  |  | reversed; also recorded: restored normal hippocampal LTP | reversed the impairment in LTP
